Results taken from PMC6608980, “The lectin-specific activity of Toxoplasma gondii microneme proteins 1 and 4 binds Toll-like receptor 2 and 4 N-glycans to regulate innate immune priming” (PLoS Pathogens, 2019).

Key:
rMIC1 = molecular target: T1, rMIC1 (Toxoplasma gondii, UniProt A0A125YMF8); experiment: microplate sugar-inhibition of binding to coated fetuin, antibody detection; conditions: 25 °C, 2 h; competes with fetuin glycans at the carbohydrate-recognition domain
T1 construct: gene MIC1

rMIC4 = molecular target: T2, rMIC4 (Toxoplasma gondii, UniProt Q9XZH7); experiment: microplate sugar-inhibition of binding to coated asialofetuin, antibody detection; conditions: 25 °C, 2 h; competes with asialofetuin glycans at the carbohydrate-recognition domain
T2 construct: gene MIC4
T2 sequence (Q9XZH7 26-580): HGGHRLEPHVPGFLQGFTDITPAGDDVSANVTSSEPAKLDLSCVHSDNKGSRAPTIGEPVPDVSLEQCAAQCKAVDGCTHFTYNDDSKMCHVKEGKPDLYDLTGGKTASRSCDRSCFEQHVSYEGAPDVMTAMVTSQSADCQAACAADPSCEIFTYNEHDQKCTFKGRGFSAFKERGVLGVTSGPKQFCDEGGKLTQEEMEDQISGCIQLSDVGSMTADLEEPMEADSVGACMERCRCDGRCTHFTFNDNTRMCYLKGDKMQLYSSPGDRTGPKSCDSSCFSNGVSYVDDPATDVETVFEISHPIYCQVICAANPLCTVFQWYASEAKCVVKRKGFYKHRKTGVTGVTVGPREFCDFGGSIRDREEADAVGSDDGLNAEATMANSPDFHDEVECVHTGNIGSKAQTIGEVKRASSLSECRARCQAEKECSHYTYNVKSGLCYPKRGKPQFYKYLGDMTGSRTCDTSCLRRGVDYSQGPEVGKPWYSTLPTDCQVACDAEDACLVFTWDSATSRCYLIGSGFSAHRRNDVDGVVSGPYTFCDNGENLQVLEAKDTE

T1 sequence (A0A125YMF8 entry or part of it): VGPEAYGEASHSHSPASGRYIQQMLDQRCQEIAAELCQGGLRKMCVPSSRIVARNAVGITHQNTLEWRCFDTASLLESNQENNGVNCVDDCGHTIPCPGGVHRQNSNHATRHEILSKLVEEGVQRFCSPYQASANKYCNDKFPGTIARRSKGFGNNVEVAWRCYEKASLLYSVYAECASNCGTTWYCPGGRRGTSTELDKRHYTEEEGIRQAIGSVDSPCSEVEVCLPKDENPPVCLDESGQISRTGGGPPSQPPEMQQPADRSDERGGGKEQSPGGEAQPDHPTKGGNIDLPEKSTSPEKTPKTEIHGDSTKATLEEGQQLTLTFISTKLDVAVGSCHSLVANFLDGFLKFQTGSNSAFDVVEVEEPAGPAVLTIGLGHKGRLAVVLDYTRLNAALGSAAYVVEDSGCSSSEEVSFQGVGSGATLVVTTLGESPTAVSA

SMILES | microplate sugar-inhibition of binding to coated fetuin, antibody detection (rMIC1) | microplate sugar-inhibition of binding to coated asialofetuin, antibody detectio (rMIC4)
CC(=O)N[C@H]1[C@H]([C@H](O)[C@H](O)CO)O[C@@](O[C@H]2[C@@H](O)[C@@H](CO)O[C@@H](O[C@H]3[C@H](O)[C@@H](O)C(O)O[C@@H]3CO)[C@@H]2O)(C(=O)O)C[C@@H]1O (stereo partly drawn) [α(2–3)-sialyllactose] | Sialyllactose inhibited the binding of rMIC1 to fetuin | 
CC(=O)N[C@H]1C(O)O[C@H](CO)[C@@H](O)[C@@H]1O[C@@H]1O[C@H](CO)[C@H](O)[C@H](O)[C@H]1O (some centres unmarked) [lacto-N-biose] |  | lacto-N-biose inhibited the binding of rMIC4 to asialofetuin
